Data as given in patent US20100285959A1, “HERBICIDAL MIXTURES” (priority 2006, published 2010).

Legend:
ducksalad (HETLI) = experiment: Test 32 greenhouse, simulated flooded rice culture; type: in vivo, Heteranthera limosa; design: scale not given here; details: postemergence to flood, 21 DAA
Procedure: (§1) A greenhouse trial was conducted to evaluate the effects of Compound 1 and isoxadifen-ethyl at different ratios in simulated flooded rice culture. Plastic pots (11-cm diameter) were partially filled with non-sterilized Tama silt loam soil containing a 15:57:28 ratio of sand, silt and clay and 2.9% organic matter. Seeds of Heteranthera limosa (ducksalad; HETLI), Cyperus difformis (smallflower umbrella sedge; CYPDI), one stand of Echinochloa crus-galli (barnyardgrass; ECHCG), and one stand of four rice seedlings (Oryza sativa cv. ‘M202’; ORYSA) were planted into a single 11-cm diameter pot for each rate and mixture of rates. To obtain this planting, C. difformis and H. limosa seeds were planted separately on the surface soil layer at particular locations within each pot. Water levels were brought to a puddled condition above the soil surface directly after planting. E. crus-galli and rice seeds were planted in cavity trays in the silt loam soil and transplanted at the 1.5 and 2.0 leaf stage, respectively. E. crus-galli and rice plants were transplanted to about 2-cm depth by transferring plugs from the cavity trays. Plantings were sequential so that these plant species all reached the 2.0- to 2.5-leaf stage in the 11-cm diameter pot at time of treatment. Plantings were established and maintained in a greenhouse with day and night temperatures of about 29.5 and 26.7° C. respectively; supplemental balanced lighting was provided to maintain a 16-hour photoperiod. Pots were fertilized periodically with a 200 ppm solution of commercial Scotts Peters® Professional® General Purpose 20-20-20 Water Soluble Fertilizer, amended to 10 ppm with a commercial iron-chelate micronutrient fertilizer. The solution was supplied at time of watering via a liquid fertilizer injector.
(§2) At treatment time, test pots were flooded to 3 cm above the soil surface and maintained at that water depth for the duration of the test. Chemical treatments were formulated in acetone and applied directly to the paddy water (i.e., postemergence to flood). Make-up volumes of acetone were added to ensure that all pots were treated with a consistent volume. Test pots were maintained in the greenhouse. A randomized complete block design was employed. Five replicates of each treatment, alone and in mixture, were used. Each species was visually evaluated for treatment effects by comparing those treated to untreated controls and rated for plant response after 21 days.

barnyardgrass (ECHCG) = experiment: Test 32 greenhouse, simulated flooded rice culture; type: in vivo, Echinochloa crus-galli; design: scale not given here; details: postemergence to flood, 21 DAA
Procedure: as §1, §2

[1] = tested on: common lambsquarters (CHEAL); experiment: Test 4 field trial, postemergence; type: in vivo, Chenopodium album; details: 14 DAA
[2] = tested on: Pennsylvania smartweed (POLPY); experiment: Test 25 field trial, postemergence, growth as percent of control; type: in vivo, Polygonum pensylvanicum; details: 14 DAA
Description: Corn seeds (hybrid ‘Pioneer 31G96 RR’) were planted in mid spring season, 3.8 cm deep in a clay loam soil having 2% organic matter and a pH of 6.6. Plots were 6.1 m long by 3.0 m wide with rows spaced 76 cm apart. Seeds were spaced 15 cm apart within the rows. The field was managed using conventional tillage practices. […] Giant ragweed and Pennsylvania smartweed could only be evaluated 14 days after application. […] Results are the means of the three replicates. This growth inhibition data was converted to results in the form of “plant growth as a percent of control plant growth” using the calculation “100 minus growth inhibition”.
When this form of Colby's Equation is used, if the observed effects on weeds are less than the expected values, the mixture is synergistic.

Russian thistle (SASKR) = experiment: Test 4 field trial, postemergence; type: in vivo, Salsola kali; design: scale not given here
Procedure: (§3) A field trial was conducted to evaluate the effects of mixtures of Compound 2 with commercial herbicides on spring wheat (TRZAS, Triticum aestivum L.) and several weed species. Wheat seeds (cv. ‘AC Intrepid’) were planted in late spring season, 3.8 cm deep in a loam soil having 2.7% organic matter and a pH of 7. Plots were 6 m long by 2.5 m wide. The field was managed using no-till practices. The plots were arranged in a randomized complete block design with each treatment being replicated four times. Treatments were applied postemergence 25 days after planting using a backpack sprayer delivering a spray volume of 55 L/ha using a pressure of 276 kPa. […] Compound 2 and clodinafop treatments, alone and in combination, also included a surfactant. Weed species present in the experimental plots in sufficient quantity to be evaluated included wild oat (AVEFA, Avena fatua L.), common lambsquarters (CHEAL, Chenopodium album L.), kochia (KCHSC, Kochia scoparia (L.) Schrad.), wild buckwheat (POLCO, Polygonum convolvulus L.), Russian thistle (SASKR, Salsola kali L. ssp. ruthenica (Iljin) Soo), and field pennycress (THLAR, Thlaspi arvense L.). […] Common lambsquarters was evaluated only at 14 days after application. […] Results are the means of the four replicates.

giant foxtail (SETFA) = experiment: Test 26 field trial, postemergence; type: in vivo, Setaria faberi; design: scale not given here
Description: Corn seeds (hybrid ‘Pioneer 31G96’) were planted in mid spring season, 3.8 cm deep in a silt loam soil having 2% organic matter and a pH of 6.6. Plots were 6.1 m long by 3.0 m wide with rows spaced 76 cm apart. Seeds were spaced 15 cm apart within the rows. The field was managed using conventional tillage practices. […] All treatments also included a surfactant. […] Some of the weed species could not be evaluated at every timing. […] Results are the means of the three replicates.

kochia (KCHSC) = experiment: Test 4 field trial, postemergence; type: in vivo, Kochia scoparia
Procedure: as §3

wild oat (AVEFA) = experiment: Test 4 field trial, postemergence; type: in vivo, Avena fatua; design: scale not given here
Procedure: as §3

[3] = 14 DAA, Cpd 2 30 g a.i./ha alone or with clodinafop 56 or fenoxaprop 90
[4] = 14 DAA, Cpd 2 60 g a.i./ha alone or with clodinafop 56 or fenoxaprop 90
[5] = 35 DAA, Cpd 2 30 g a.i./ha alone or with clodinafop 56 or fenoxaprop 90
[6] = 35 DAA, Cpd 2 60 g a.i./ha alone

How did the “HETLI Obs” value (ducksalad (HETLI); Cpd 1 31.25 g a.i./ha) turn out when `Nc1nc(C2CC2)nc(C(=O)O)c1Cl` [Compound 1, 6-amino-5-chloro-2-cyclopropyl-4-pyrimidinecarboxylic acid] was run?
The value was 38.

And the “HETLI Obs” value (ducksalad (HETLI); Cpd 1 62.5 g a.i./ha)?
Its value is 76.

What about the “HETLI Obs” value (ducksalad (HETLI); Cpd 1 125 g a.i./ha) of the same compound?
Its value is 95.

And the “ECHCG Obs” value (barnyardgrass (ECHCG); Cpd 1 31.25 g a.i./ha)?
The value was 10.

And the “ECHCG Obs” value (barnyardgrass (ECHCG); Cpd 1 62.5 g a.i./ha)?
The value was 19.

And the “ECHCG Obs” value (barnyardgrass (ECHCG); Cpd 1 125 g a.i./ha)?
Its value is 37.

`COC(=O)c1nc(C2CC2)nc(N)c1Cl` [Compound 2, methyl 6-amino-5-chloro-2-cyclopropyl-4-pyrimidinecarboxylate] was tested. Which “CHEAL Obs” value ([1]; Cpd 2 30 g a.i./ha alone or with clodinafop 56 or fenoxaprop 90) did it give?
Its value is 83.

And the “CHEAL Obs” value ([1]; Cpd 2 60 g a.i./ha alone or with clodinafop 56 or fenoxaprop 90)?
Its value is 92.

And the “POLPY Obs (percent of control)” value ([2]; Cpd 2 15 g a.i./ha)?
The value was 95%.

What about the “POLPY Obs (percent of control)” value ([2]; Cpd 2 30 g a.i./ha) of the same compound?
The value was 55%.

And the “POLPY Obs (percent of control)” value ([2]; Cpd 2 45 g a.i./ha)?
The value was 65%.

And the “SASKR Obs” value (Russian thistle (SASKR); [3])?
The value was 88.

And the “SASKR Obs” value (Russian thistle (SASKR); [4])?
Its value is 91.

What about the “SASKR Obs” value (Russian thistle (SASKR); [5]) of the same compound?
Its value is 99.

And the “SASKR Obs” value (Russian thistle (SASKR); [6])?
Its value is 95.

What about the “SETFA Obs” value (giant foxtail (SETFA); 28 DAA, 30 g a.i./ha) of the same compound?
The value was 98.

And the “SETFA Obs” value (giant foxtail (SETFA); 28 DAA, 45 g a.i./ha)?
Its value is 97.

And the “SETFA Obs” value (giant foxtail (SETFA); 28 DAA, 60 g a.i./ha)?
The value was 99.

What about the “SETFA Obs” value (giant foxtail (SETFA); 56 DAA, 30 g a.i./ha) of the same compound?
The value was 50.

What about the “SETFA Obs” value (giant foxtail (SETFA); 56 DAA, 45 g a.i./ha) of the same compound?
Its value is 73.

What about the “SETFA Obs” value (giant foxtail (SETFA); 56 DAA, 60 g a.i./ha) of the same compound?
Its value is 70.

And the “KCHSC Obs” value (kochia (KCHSC); [3])?
The value was 95.

What about the “KCHSC Obs” value (kochia (KCHSC); [5]) of the same compound?
The value was 99.

And the “KCHSC Obs” value (kochia (KCHSC); [6])?
The value was 96.

And the “AVEFA Obs” value (wild oat (AVEFA); [3])?
The value was 0.

And the “AVEFA Obs” value (wild oat (AVEFA); [4])?
Its value is 0.

What about the “AVEFA Obs” value (wild oat (AVEFA); [5]) of the same compound?
Its value is 0.

And the “AVEFA Obs” value (wild oat (AVEFA); 35 DAA, Cpd 2 60 g a.i./ha alone or with clodinafop 56 or fenoxaprop 90)?
The value was 0.

And the “AVEFA Obs” value (wild oat (AVEFA); 55 DAA, Cpd 2 30 g a.i./ha alone or with clodinafop 56 or fenoxaprop 90)?
The value was 0.

And the “AVEFA Obs” value (wild oat (AVEFA); 55 DAA, Cpd 2 60 g a.i./ha alone or with clodinafop 56 or fenoxaprop 90)?
The value was 0.
